Data: patent US5434165A, “Nootropic agents, compositions of, and method of use thereof” (Sanawa Kagaku Kenkyusho Company, Ltd., priority 1991, dated 1995)
Read-outs that look alike come from different tables or passages of the source.

Legend:
[1] = target: T1, 3H-Pirenzepine bonding to rat brain homogenate (Rattus norvegicus, UniProt P08482); assay: 3H-Pirenzepine bonding inhibition test, rat brain homogenate (Test Example 2); format: binding, SD male rat
T1 construct: to obtain a rat brain homogenate for testing; from tissue; host or cells: brain without cerebellum, SD male rat (homogenate, 1000×g supernatant)
T1 sequence (P08482 1-460): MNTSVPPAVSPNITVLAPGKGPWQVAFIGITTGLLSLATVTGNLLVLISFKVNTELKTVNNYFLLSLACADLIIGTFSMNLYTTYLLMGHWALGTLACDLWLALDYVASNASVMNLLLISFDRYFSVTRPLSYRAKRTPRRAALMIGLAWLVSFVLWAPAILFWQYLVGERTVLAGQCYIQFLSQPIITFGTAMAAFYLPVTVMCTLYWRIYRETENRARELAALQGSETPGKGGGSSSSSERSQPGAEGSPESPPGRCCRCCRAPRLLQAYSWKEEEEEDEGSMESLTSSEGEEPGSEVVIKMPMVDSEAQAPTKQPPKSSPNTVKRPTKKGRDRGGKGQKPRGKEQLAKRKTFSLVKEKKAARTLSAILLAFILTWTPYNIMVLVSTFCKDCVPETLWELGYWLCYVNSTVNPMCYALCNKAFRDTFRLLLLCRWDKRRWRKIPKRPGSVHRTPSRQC
Protocol: A rat brain homogenate was prepared according to the method of Yamamura and Synder (Proc. Nat. Acad. Sci. USA, Vol. 71, pp. 1725-1729 (1974)).
An SD male rat was sacrificed by decapitation, and the brain excised. After the cerebellum was removed, 0.32 M sucrose was added thereto in an amount 10 times the weight of the brain under ice cooling, followed by homogenizing in a Potter-Elvehjem glass homogenizer. The resulting homogenate was centrifuged at 1000×g for 10 minutes, the precipitate removed, and the supernatant further homogenized with a Polytron (manufactured by KINEMATICA) to obtain a rat brain homogenate for testing.
The method of Flynn and Mash (J. Pharm. Exp. Therm., Vol. 250, pp. 573-581 (1989)) was followed.
A mixture consisting of 0.035 ml of the above prepared rat brain homogenate (protein content: 0.6 mg), 1 ml of a 50 mM phosphoric acid buffer (pH 7.4) containing 2.0 nM ^3 H-pirenzepine, and 1 ml of a test compound dissolved in the same buffer was allowed to react at room temperature for 60 minutes. To the reaction mixture was added 3.0 ml of the same buffer as used above as cooled with ice, and the mixture was filtered through Whatman GF/B filter paper having been previously impregnated with a 0.1% polyethyleneimine solution for 60 minutes. The filter cake was washed twice with 3.0 ml of the same buffer, the filter paper taken out, an emulsion scintillator added, and the scintillation measured with a liquid scintillation counter to obtain a 50% inhibitory concentration (IC50) of the test compound on ^3 H-pirenzepine bonding to the rat brain homogenate.

[2] = tested on: scopolamine-induced inhibition of memory retention; assay: Passive avoidance learning test, scopolamine-induced memory retention defect (Test Example 1); format: in vivo, mice; details: 5 min after scopolamine 0.25 mg/kg i.p., remembrance test after 24 h
Protocol: A passive avoidance learning test using mice was conducted to examine whether scopolamine-induced inhibition of memory retention can be improved by the compound of the present invention.
A training box composed of a light room and a dark room having the same structure was used. The dark room is designed so that a foot shock is given to a test animal via a grid of the floor. An opening is provided on the partitioning wall of the two rooms to let animals in and out freely.
Scopolamine hydrobromide dissolved in physiological saline was intraperitoneally administered to a mouse at a dose of 0.25 mg/kg.
Five minutes after the scopolamine administration, a test compound was intraperitoneally administered to the mouse at a dose shown in Table 1 below (test group).
The animal was put in the light room. Immediately after the animal moved into the dark room, a foot shock was given until the animal returned to the light room.
After 24 hours from the training, the animal was again put in the light room, and the time required for the animal's moving to the dark room was measured up to 300 seconds.
The data from the remembrance test were analyzed to obtain a percent prolongation of the memory retention time of the test group based on that of the control group having received no test compound.

[3] = tested on: male mouse; assay: Acute Toxicity Test (Test Example 3); format: in vivo; details: 100 mg/kg i.p., 5-week-old male mouse
Protocol: The compound of Example 11, suspended in 5% gum arabic, was intraperitoneally achninistered to a 5-week-old […] male mouse. General manifestation of toxicity was observed over 60 minutes after the administration, and the animal's death was observed up to 24 hours from the administration.

[4] = 2.0 nM 3H-pirenzepine, pH 7.4, room temperature, 60 min, read-out: IC50 (50% inhibitory concentration on 3H-pirenzepine bonding)

Structure (SMILES) | IC50 [1, 4] | Percent Prolongation (of memory retention time vs control) ([2]; dose 1000 μg/kg i.p.) | IC50 [1] | further results
O=[N+]([O-])c1c(NCC23CCCN2CCC3)cnc2ccccc12 [Example 6, 3-(1-Azabicyclo[3.3.0]octan-5-yl)methylamino-4-nitroquinoline] | 1200 nM | 55.1% |  | 
O=[N+]([O-])c1ccc(NCC23CCCN2CCC3)cc1 [Example 10, 1-(1-Azabicyclo[3.3.0]octan-5-yl)methylamino-4-nitrobenzene] |  | 26.5% |  | 
O=[N+]([O-])c1ccc(NCC23CCCN2CCC3)c2ccccc12 [Example 11, 1-(1-Azabicyclo[3.3.0]octan-5-yl)methylamino-4-nitronaphthalene] |  | 152.6% | 900 nM | general manifestation of toxicity ([3]; observed over 60 minutes): neither general manifestation of toxicity nor death was observed; death ([3]; observed up to 24 hours): neither general manifestation of toxicity nor death was observed; Percent Prolongation (of memory retention time vs control) ([2]; dose 1 μg/kg i.p.): 30.9%; Percent Prolongation (of memory retention time vs control) ([2]; dose 10 μg/kg i.p.): 91.7%; Percent Prolongation (of memory retention time vs control) ([2]; dose 100 μg/kg i.p.): 120.9%
CC(C)N(CCNc1ccc([N+](=O)[O-])c2ccccc12)C(C)C [Example 14, 1-(2-Diisopropylaminoethyl)amino-4-nitronaphthalene] | 900 nM |  |  | 
CN(CC12CCCN1CCC2)c1ccc([N+](=O)[O-])c2ccccc12 [Example 15, 1[N-(1-Azabicyclo[3.3.0]octan-5-yl)methyl-N-methylamino]-4-nitronaphthalene] |  |  | 40 nM | Percent Prolongation (of memory retention time vs control) ([2]; dose 0.01 μg/kg i.p.): 111.6%; Percent Prolongation (of memory retention time vs control) ([2]; dose 0.1 μg/kg i.p.): 68.8%; Percent Prolongation (of memory retention time vs control) ([2]; dose 1 μg/kg i.p.): 85.2%
O=[N+]([O-])c1cccc2c(NCC34CCCN3CCC4)cccc12 [Example 17, 1-(1-Azabicyclo[3.3.0]octan-5-yl)methylamino-5-nitronaphthalene] |  |  | 800 nM | 
CN(CC12CCCN1CCC2)c1c([N+](=O)[O-])ccc2ccccc12 [Example 18, 1-[N-(1-Azabicyclo[3.3.0]octan-5-yl)methyl-N-methylamino]-2-nitronaphthalen] | 440 nM |  |  | Percent Prolongation (of memory retention time vs control) ([2]; dose 0.01 μg/kg i.p.): 117.9%; Percent Prolongation (of memory retention time vs control) ([2]; dose 0.1 μg/kg i.p.): 115.9%
O=[N+]([O-])c1c2ccccc2c(NCC23CCCN2CCC3)c2ccccc12 [Example 19, 9-(1-Azabicyclo[3.3.0]octan-5-yl)methylamino-10-nitroanthracene] | 1400 nM |  |  | 
Nc1c2c(nc3ccccc13)CCCC2 [THA, 1,2,3,4-tetrahydro-9-aminoacridine, reference compound] |  | 74.8% |  | Percent Prolongation (of memory retention time vs control) ([2]; dose 100 μg/kg i.p.): 24.4%
